pIC50: −log10 of the molar value. Blank lines part the entries; values can stand above or below the compound they belong to.
Experiments:
[1] = Pharmacokinetic (PK) test in mice; type: in vivo; settings: mouse, plasma, male balb/c mice, intravenous 1 mg/kg, gavage 3 mg/kg
Description: The clear solution obtained after dissolving the test compound was administered to male mice (balb/c) via tail vein injection and gavage respectively. After administration of the test compound, blood samples were collected from mandibular veins for the intravenous injection group (1 mg/kg) at 0.083, 0.25, 0.5, 1, 2, 4, 8 and 24 h and for the gavage group (3 mg/kg) was at 0.25, 0.5, 1, 2, 4, 6, 8 and 24 h, respectively, and centrifuged to obtain plasma. The LC-MS/MS method was used to determine the blood drug concentration, and the WinNonlin™ Version 6.3 pharmacokinetic software was used to calculate the relevant pharmacokinetic parameters by the non-compartmental model linear logarithmic trapezoidal method.

[2] = system: IL-23 induced psoriasis-like skin lesions in mice; experiment: In vivo drug efficacy test in mouse psoriasis model (IL-23 induced auricular epidermal dysplasia); set-up: species or system C57BL/6 mice; Ear comprehensive score: scale not given here; settings: for Ear weight: end of experiment (Day 10), 8 mm punch
Description: Purpose: The purpose of this experiment is to evaluate the preventive and therapeutic effect of the test substance on IL-23 induced psoriasis-like skin lesions in mice through the psoriasis-like skin lesions model induced by intradermal injection of IL-23 into the mouse auricle.
Method: After the adaptation period of experimental animals, 50 mice were divided into 5 groups according to the Excel completely random grouping method, with 10 mice in each group, as follows: vehicle (0.5% MC & 0.5% Tween 80) control group, modeling group, compound 1 (10, 20, 50 mg/kg) group. Except for the vehicle control group, the animals in the other groups were intradermally injected with IL-23 (3 μg/10 μL/mouse/day, QD) in their right ears for 8 consecutive days (D1-D8). The animals in the control group were intradermally injected with an equal volume of physiological saline solution (10 μL/mouse/day, QD) in the right ear for 8 consecutive days (D1-D8). For the modeling group, the vehicle and test drug were administered orally at the same time, twice a day (Bid), with an interval of 6 h, for 8 consecutive days (D1-D8). During the dosing period, the animal body weight was monitored every two days. On D1, D3, D5, D7 (all before IL-23 injection), and D9, the thickness of the mouse right ear was measured and the auricle appearance was observed and scored. At the end of the experiment (Day 10), the ear on the side where the model was created was taken, and the ear was punched along the edge of the auricle with an 8 mm punch to obtain a piece of ear which was weighed. The piece of ear from the right ear was fixed with formalin and then subjected to histopathological examination (H&E) staining.

JAK1(h) = JAK1(h) (Homo sapiens (Human), UniProt P23458); experiment: JAK1 kinase activity test in vitro ([γ-33P]-ATP, Eurofins); type: biochemical
Description: (§1) Recombinant human JAK1, JAK2, JAK3 and Tyk2 […], main instruments and reagents are all provided by the British company Eurofins
(§2) JAK2, JAK3 and TYK2 dilution: 20 mM 3-(N-morpholine)propanesulfonic acid (MOPS), 1 mM EDTA, 0.01% Brij-35.5% glycerol, 0.1% β-mercaptoethanol, 1 mg/mL BSA; JAK1 dilution: 20 mM TRIS, 0.2 mM EDTA, 0.1% β-mercaptoethanol, 0.01% Brij-35.5% glycerol. All compounds were prepared as 100% DMSO solutions and brought to 50 times the final assay concentration. The test compound was subjected to 3-fold serial concentration dilution with a final concentration from 10 μM to 0.001 μM of a total of 9 concentrations. The content of DMSO in the detection reaction was 2%. A working stock solution of this compound was added to the assay well as the first component of the reaction, and then the remaining components were added according to the protocol detailed in the following determination.
JAK1(h) was incubated with 20 mM Tris/HCl pH 7.5, 0.2 mM EDTA, 500 μM MGEEPLYWSFPAKKK (SEQ ID NO: 1), 10 mM magnesium acetate and [γ-^33P]-ATP (activity and concentration were determined as required). The reaction was started by adding the Mg/ATP mixture, and after incubation at room temperature for 40 min, the reaction was terminated by adding 0.5% phosphoric acid. Then 10 μL of the reaction product was spotted on a P30 filter pad which was washed three times with 0.425% phosphoric acid and once with methanol within 4 min, dried, and subjected to scintillation counting.
(§3) IC50 results were analyzed by XLFIT5 (205 formula) of IDBS Company.

JAK2(h) = JAK2(h) (Homo sapiens (Human), UniProt O60674); experiment: JAK2 kinase activity test in vitro ([γ-33P]-ATP, Eurofins); type: biochemical
Description: as §1, §2
JAK2(h) was incubated with 8 mM MOPS pH 7.0, 0.2 mM EDTA, 100 μM […] (SEQ ID NO: 2), 10 mM magnesium acetate, and [γ-^33P]-ATP (activity and concentration were determined as required). The reaction was started by adding the Mg/ATP mixture, and after incubation at room temperature for 40 min, the reaction was terminated by adding 0.5% phosphoric acid. Then 10 μL of the reaction product was spotted on a P30 filter pad which was washed three times with 0.425% phosphoric acid and once with methanol within 4 min, dried, and subjected to scintillation counting.
as §3

JAK3(h) = JAK3(h) (Homo sapiens (Human), UniProt P52333); experiment: JAK3 kinase activity test in vitro ([γ-33P]-ATP, Eurofins); type: biochemical
Description: as §1, §2
JAK3(h) was incubated with 8 mM MOPS pH 7.0, 0.2 mM EDTA, 500 μM GGEEEEYFELVKKKK (SEQ ID NO: 3), 10 mM magnesium acetate, and [γ-^33P]-ATP (activity and concentration were determined as required). The reaction was started by adding the Mg/ATP mixture, and after incubation at room temperature for 40 min, the reaction was terminated by adding 0.5% phosphoric acid. Then 10 μL of the reaction product was spotted on a P30 filter pad which was washed three times with 0.425% phosphoric acid and once with methanol within 4 min, dried, and subjected to scintillation counting.
as §3

TYK2(h) = TYK2(h) (Homo sapiens (Human), UniProt P29597); experiment: TYK2 kinase activity test in vitro ([γ-33P]-ATP, Eurofins); type: biochemical
Description: as §1, §2
TYK2(h) was incubated with 8 mM MOPS pH 7.0, 0.2 mM EDTA, 250 μM GGMEDIYFEFMGGKKK (SEQ ID NO: 4), 10 mM magnesium acetate, and [γ-^33P]-ATP (activity and concentration were determined as required). The reaction was started by adding the Mg/ATP mixture, and after incubation at room temperature for 40 min, the reaction was terminated by adding 0.5% phosphoric acid. Then 10 μL of the reaction product was spotted on a P30 filter pad which was washed three times with 0.425% phosphoric acid and once with methanol within 4 min, dried, and subjected to scintillation counting.
as §3

[3] = 10 mg/kg oral gavage Bid, day 1
[4] = 10 mg/kg oral gavage Bid, day 3
[5] = 10 mg/kg oral gavage Bid, day 5
[6] = 10 mg/kg oral gavage Bid, day 7
[7] = 10 mg/kg oral gavage Bid, day 9
[8] = 20 mg/kg oral gavage Bid, day 1
[9] = 20 mg/kg oral gavage Bid, day 3
[10] = 20 mg/kg oral gavage Bid, day 5
[11] = 20 mg/kg oral gavage Bid, day 7
[12] = 20 mg/kg oral gavage Bid, day 9
[13] = 50 mg/kg oral gavage Bid, day 1
[14] = 50 mg/kg oral gavage Bid, day 3
[15] = 50 mg/kg oral gavage Bid, day 5
[16] = 50 mg/kg oral gavage Bid, day 7
[17] = 50 mg/kg oral gavage Bid, day 9

JAK3(h), sequence (P52333 whole entry): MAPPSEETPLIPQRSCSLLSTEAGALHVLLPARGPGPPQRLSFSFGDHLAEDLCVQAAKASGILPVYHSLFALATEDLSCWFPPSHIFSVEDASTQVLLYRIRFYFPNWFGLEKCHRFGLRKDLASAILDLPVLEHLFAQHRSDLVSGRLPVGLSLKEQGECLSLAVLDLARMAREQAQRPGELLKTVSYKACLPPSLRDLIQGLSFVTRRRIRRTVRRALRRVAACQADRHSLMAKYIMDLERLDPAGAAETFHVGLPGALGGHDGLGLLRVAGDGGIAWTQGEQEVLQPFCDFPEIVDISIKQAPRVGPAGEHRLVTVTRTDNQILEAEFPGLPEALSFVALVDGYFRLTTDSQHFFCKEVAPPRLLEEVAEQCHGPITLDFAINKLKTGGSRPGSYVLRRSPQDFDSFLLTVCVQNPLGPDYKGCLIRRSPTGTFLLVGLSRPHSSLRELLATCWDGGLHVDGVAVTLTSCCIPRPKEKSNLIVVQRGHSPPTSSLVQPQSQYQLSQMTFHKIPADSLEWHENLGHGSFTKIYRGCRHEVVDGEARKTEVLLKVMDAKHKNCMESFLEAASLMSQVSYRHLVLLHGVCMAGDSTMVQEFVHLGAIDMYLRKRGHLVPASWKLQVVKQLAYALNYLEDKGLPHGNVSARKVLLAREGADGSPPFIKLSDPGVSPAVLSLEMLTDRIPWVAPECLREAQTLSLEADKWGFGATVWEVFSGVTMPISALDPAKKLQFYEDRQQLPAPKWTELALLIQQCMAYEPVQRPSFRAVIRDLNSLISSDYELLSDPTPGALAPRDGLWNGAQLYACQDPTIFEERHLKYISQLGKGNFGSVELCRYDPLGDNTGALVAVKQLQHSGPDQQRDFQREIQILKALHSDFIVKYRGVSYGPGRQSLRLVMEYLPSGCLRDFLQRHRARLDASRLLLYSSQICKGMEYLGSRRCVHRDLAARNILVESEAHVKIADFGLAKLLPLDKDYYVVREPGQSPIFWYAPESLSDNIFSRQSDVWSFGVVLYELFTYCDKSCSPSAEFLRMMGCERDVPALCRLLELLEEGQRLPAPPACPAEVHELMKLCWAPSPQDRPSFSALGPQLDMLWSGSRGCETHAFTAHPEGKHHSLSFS
JAK1(h), sequence (P23458 whole entry): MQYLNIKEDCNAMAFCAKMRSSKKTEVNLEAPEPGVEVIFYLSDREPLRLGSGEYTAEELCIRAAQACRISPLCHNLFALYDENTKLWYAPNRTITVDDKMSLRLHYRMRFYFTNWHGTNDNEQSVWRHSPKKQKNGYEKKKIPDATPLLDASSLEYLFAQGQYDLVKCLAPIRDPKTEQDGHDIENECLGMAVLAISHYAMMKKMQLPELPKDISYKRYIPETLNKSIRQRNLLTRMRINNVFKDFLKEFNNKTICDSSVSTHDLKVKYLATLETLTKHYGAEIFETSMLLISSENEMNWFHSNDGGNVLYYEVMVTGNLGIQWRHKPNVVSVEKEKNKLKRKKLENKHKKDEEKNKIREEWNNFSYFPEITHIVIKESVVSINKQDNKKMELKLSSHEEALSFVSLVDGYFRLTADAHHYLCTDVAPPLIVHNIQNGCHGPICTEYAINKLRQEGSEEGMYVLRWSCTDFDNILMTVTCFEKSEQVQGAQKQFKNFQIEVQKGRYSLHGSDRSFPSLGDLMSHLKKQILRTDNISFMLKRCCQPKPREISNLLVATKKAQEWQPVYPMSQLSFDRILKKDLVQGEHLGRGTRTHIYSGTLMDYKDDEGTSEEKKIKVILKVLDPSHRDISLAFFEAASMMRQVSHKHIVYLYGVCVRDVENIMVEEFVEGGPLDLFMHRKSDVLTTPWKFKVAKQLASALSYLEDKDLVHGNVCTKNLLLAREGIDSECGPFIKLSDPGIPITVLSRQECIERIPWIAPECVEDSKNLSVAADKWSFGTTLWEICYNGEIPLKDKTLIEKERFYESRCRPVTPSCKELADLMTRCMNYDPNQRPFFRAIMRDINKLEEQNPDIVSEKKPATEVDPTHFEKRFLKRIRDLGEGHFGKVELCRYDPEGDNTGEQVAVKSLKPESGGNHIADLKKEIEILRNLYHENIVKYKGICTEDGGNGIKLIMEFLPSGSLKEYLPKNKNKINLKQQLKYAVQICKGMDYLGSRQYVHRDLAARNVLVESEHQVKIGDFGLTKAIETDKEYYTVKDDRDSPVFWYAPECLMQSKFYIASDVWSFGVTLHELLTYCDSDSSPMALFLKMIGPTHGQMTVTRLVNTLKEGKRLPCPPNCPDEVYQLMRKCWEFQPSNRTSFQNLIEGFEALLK
TYK2(h), sequence (P29597 whole entry): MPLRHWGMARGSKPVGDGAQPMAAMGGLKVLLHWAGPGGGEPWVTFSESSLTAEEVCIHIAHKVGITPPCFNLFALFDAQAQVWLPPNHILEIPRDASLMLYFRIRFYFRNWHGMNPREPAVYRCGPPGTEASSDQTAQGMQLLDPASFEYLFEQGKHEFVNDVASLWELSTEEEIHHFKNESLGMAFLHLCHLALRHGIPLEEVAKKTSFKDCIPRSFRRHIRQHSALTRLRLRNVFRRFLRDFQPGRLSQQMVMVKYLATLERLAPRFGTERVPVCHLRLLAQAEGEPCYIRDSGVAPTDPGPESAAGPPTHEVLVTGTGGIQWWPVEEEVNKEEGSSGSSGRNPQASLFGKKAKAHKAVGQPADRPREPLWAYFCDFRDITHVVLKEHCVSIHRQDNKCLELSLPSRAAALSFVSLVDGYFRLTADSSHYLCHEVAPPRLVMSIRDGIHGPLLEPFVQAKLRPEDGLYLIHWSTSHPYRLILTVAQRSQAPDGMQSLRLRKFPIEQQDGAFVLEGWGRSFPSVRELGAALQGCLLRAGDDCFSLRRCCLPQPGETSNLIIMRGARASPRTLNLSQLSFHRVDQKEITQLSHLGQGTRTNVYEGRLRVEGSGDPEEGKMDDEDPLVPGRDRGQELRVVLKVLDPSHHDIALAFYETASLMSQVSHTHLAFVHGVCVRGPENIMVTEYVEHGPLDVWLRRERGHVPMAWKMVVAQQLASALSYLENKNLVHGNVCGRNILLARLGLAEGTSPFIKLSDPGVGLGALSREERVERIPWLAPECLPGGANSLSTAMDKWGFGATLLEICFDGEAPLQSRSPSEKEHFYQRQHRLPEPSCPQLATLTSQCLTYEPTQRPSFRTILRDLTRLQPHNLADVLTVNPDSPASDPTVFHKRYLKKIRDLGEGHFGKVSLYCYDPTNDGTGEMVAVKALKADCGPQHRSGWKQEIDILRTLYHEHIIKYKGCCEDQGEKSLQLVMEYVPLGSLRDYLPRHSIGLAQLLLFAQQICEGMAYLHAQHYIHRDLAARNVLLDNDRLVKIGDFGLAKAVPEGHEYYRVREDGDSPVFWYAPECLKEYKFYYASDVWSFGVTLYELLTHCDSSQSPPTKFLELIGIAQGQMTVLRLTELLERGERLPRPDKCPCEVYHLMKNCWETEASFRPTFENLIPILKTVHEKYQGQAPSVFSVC
JAK2(h), sequence (O60674 whole entry): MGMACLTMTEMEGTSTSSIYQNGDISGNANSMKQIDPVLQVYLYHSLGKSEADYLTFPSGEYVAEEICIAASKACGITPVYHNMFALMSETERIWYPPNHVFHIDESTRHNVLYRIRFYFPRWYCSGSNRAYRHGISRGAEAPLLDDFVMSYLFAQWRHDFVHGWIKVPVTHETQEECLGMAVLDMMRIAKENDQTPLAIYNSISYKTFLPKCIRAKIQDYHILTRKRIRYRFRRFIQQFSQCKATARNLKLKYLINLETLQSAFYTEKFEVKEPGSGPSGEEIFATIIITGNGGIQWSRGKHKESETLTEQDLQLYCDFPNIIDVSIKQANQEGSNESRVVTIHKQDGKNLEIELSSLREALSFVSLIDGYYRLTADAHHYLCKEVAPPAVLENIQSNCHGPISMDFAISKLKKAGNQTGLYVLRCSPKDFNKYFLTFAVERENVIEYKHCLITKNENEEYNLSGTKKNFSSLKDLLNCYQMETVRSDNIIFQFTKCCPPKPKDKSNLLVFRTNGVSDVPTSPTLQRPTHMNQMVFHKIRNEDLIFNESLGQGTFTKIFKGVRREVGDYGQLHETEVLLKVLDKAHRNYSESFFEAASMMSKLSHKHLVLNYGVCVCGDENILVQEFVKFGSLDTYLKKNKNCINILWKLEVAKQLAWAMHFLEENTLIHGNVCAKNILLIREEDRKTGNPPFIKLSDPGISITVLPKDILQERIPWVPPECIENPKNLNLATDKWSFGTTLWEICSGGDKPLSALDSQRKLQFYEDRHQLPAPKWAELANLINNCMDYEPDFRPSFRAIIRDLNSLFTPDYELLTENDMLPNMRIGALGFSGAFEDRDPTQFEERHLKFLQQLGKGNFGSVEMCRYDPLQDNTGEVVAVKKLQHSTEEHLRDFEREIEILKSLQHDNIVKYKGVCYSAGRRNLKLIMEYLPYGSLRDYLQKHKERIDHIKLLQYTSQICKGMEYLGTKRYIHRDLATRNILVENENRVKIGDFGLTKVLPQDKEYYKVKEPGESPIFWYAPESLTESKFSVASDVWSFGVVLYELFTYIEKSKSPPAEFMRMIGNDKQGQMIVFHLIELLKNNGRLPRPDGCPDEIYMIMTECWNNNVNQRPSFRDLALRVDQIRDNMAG

Structure (SMILES): Cn1cc(-c2cn3nccc3c(-c3cnn([C@]4(CC#N)CC5(C[C@H](C#N)C5)C4)c3)n2)cn1 (some centres unmarked) [Compound 1]
bioavailability ([1]; oral): 88.7% | AUC(0-inf) [1]: 7.67 µM·h | clearance ([1]; read-out: Cl (clearance rate)): 15.6 mL/min/kg | Cmax ([1]; read-out: Cmax (peak concentration)): 3.04 µM | half-life ([1]; read-out: T1/2 (half-life) (converted)): 2.39 h | Vd ([1]; read-out: Vd (distribution volume)): 1.59 L/kg | Ear comprehensive score [2, 3]: 0.00 ± 0.00 | Ear thickness (mm) [2, 3]: 0.189 ± 0.006 mm | Weight [2, 3]: 19.77 ± 0.59 g | Ear comprehensive score [2, 4]: 0.00 ± 0.00 | Ear thickness (mm) [2, 4]: 0.287 ± 0.018 mm | Weight [2, 4]: 19.69 ± 0.57 g | Ear comprehensive score [2, 5]: 0.60 ± 0.52 | Ear thickness (mm) [2, 5]: 0.311 ± 0.013 mm | Weight [2, 5]: 20.02 ± 0.77 g | Ear comprehensive score [2, 6]: 1.70 ± 1.06 | Ear thickness (mm) [2, 6]: 0.373 ± 0.030 mm | Weight [2, 6]: 19.69 ± 0.63 g | Ear comprehensive score [2, 7]: 2.60 ± 1.43 | Ear thickness (mm) [2, 7]: 0.430 ± 0.048 mm | Weight [2, 7]: 20.04 ± 0.72 g | Ear weight ([2]; 10 mg/kg oral gavage Bid): 19.16 ± 1.56 mg | Ear comprehensive score [2, 8]: 0.00 ± 0.00 | Ear thickness (mm) [2, 8]: 0.190 ± 0.009 mm | Weight [2, 8]: 19.77 ± 0.54 g | Ear comprehensive score [2, 9]: 0.00 ± 0.00 | Ear thickness (mm) [2, 9]: 0.289 ± 0.028 mm | Weight [2, 9]: 19.85 ± 0.78 g | Ear comprehensive score [2, 10]: 0.60 ± 0.70 | Ear thickness (mm) [2, 10]: 0.306 ± 0.018 mm | Weight [2, 10]: 20.13 ± 0.78 g | Ear comprehensive score [2, 11]: 1.40 ± 0.52 | Ear thickness (mm) [2, 11]: 0.350 ± 0.025 mm | Weight [2, 11]: 19.80 ± 0.92 g | Ear comprehensive score [2, 12]: 1.50 ± 0.71 | Ear thickness (mm) [2, 12]: 0.381 ± 0.032 mm | Weight [2, 12]: 20.27 ± 0.90 g | Ear weight ([2]; 20 mg/kg oral gavage Bid): 18.76 ± 1.62 mg | Ear comprehensive score [2, 13]: 0.00 ± 0.00 | Ear thickness (mm) [2, 13]: 0.193 ± 0.006 mm | Weight [2, 13]: 19.78 ± 0.53 g | Ear comprehensive score [2, 14]: 0.00 ± 0.00 | Ear thickness (mm) [2, 14]: 0.279 ± 0.024 mm | Weight [2, 14]: 19.85 ± 0.68 g | Ear comprehensive score [2, 15]: 0.10 ± 0.32 | Ear thickness (mm) [2, 15]: 0.289 ± 0.025 mm | Weight [2, 15]: 20.41 ± 0.70 g | Ear comprehensive score [2, 16]: 1.40 ± 0.70 | Ear thickness (mm) [2, 16]: 0.338 ± 0.023 mm | Weight [2, 16]: 20.15 ± 0.56 g | Ear comprehensive score [2, 17]: 1.00 ± 0.47 | Ear thickness (mm) [2, 17]: 0.352 ± 0.032 mm | Weight [2, 17]: 20.28 ± 0.76 g | Ear weight ([2]; 50 mg/kg oral gavage Bid): 17.63 ± 1.47 mg

pIC50 (JAK1(h)): 5.93 | pIC50 (JAK2(h)): 6.41 | pIC50 (JAK3(h)): 5.00 | pIC50 (TYK2(h)): 6.75
Structure (SMILES): Cn1ccc(-c2cn3nccc3c(-c3cnn(C(CC#N)C45CC(C#N)(C4)C5)c3)n2)n1 (centres unmarked) [Compound 3]

Structure (SMILES): Cn1ccc(-c2cn3nccc3c(-c3cnn([C@]4(CC#N)CC5(C[C@H](C#N)C5)C4)c3)n2)n1 (some centres unmarked) [Compound 4]
pIC50 (JAK1(h)): 6.22 | pIC50 (JAK2(h)): 7.09 | pIC50 (JAK3(h)): ≤ 5.00 | pIC50 (TYK2(h)): 7.70

Structure (SMILES): Cn1ccc(-c2cn3nccc3c(-c3cnn([C@]4(CC#N)CC5(C[C@@H](C#N)C5)C4)c3)n2)n1 (some centres unmarked) [Compound 5]
pIC50 (JAK1(h)): 7.11 | pIC50 (JAK2(h)): 7.40 | pIC50 (JAK3(h)): 5.65 | pIC50 (TYK2(h)): 8.05

pIC50 (JAK1(h)): 5.50 | pIC50 (TYK2(h)): 6.75
Structure (SMILES): Cn1ccc(-c2cn3nccc3c(-c3cnn(C4(CC#N)CC5(CN(CC#N)C5)C4)c3)n2)n1 [Compound 6]

Reference: patent publication US20250011332A1, “PYRAZOLO FUSED RING COMPOUND AND USE THEREOF” (SOTER BIOPHARMA PTE. LTD., priority 2021, published 2025)
